{"source": "patent US20140242174A1", "about": "“TREATING COUGH AND TUSSIVE ATTACKS” (VERONA PHARMA PLC, priority 2011, published 2014)", "key": {"[1]": {"tested_on": "intractable, persistent cough due to interstitial lung disease", "test": "Double blind, randomized, placebo-controlled, cross-over clinical study of inhaled carcainium chloride", "format": "in vivo, human", "text": "The aim of the clinical study was to determine the clinical effectiveness and safety of carcainium chloride by the inhaled route in hospital in-patients with intractable, persistent cough due to interstitial lung disease.\nA double blind, randomized, placebo-controlled, cross-over study design was used to assess the effect of carcainium chloride as an anti-tussive in patients with interstitial lung disease.\nThe study was constructed as an adaptive contingency trial. In such a trial the outcome of each “test” of the drug against placebo is scored as either a positive or negative result (i.e. a binary decision, rather than a quantitative measure). Based on the outcome of this “test”, the trial either continues or halts. Patients attended two study visits where they were randomised to receive either: • carcainium chloride at a dose of 1.0 mg/kg on the first study visit followed by placebo (sodium chloride 0.9%) on the second visit; or • placebo (sodium chloride 0.9%) on the first visit followed by carcainium chloride at 1.0 mg/kg on the second visit.\nAssessment of each patient was based on the following criteria. • 1 A physician's professional judgment of individual patient responses in a double blind crossover study with carcainium chloride and placebo in terms of anti-tussive action. • 2. Each patient's subjective comfort using a visual analogue scale (VAS), pre- and post-treatment. • 3. Each patient's coughs recorded in pre- and post-treatment periods for active and placebo treatments.\nCarcainium chloride is a fine white dry powder and was provided in tightly closed vessels and stored in dark at room temperature upon receipt. The vehicle used for the dilution of carcainium chloride and for the placebo was 0.9% NaCl injection.\nPatients were then administered the active or placebo sample, according to the above schedule, as an aerosol generated using an ultrasonic nebulizer (DeVilbiss Ultraneb).\nIn 8 out of 8 trials, the two physicians acting in concert successfully identified the active treatment carcainium chloride. The outcome of this assessment or “test” after each study treatment administered was either a success in which an ‘anti-tussive’ effect was observed (i.e. positive) or a failure which was defined as no change from baseline or pro-tussive effect (i.e. negative). The clinical investigator decided on a positive or negative outcome for each “test” in a blinded fashion. The statistical significance of this finding is <0.05 by contingency table, 0.05-0.01 by Chi square.\nThis was assessed on a 0-10 equal interval scale in the pre-drug and post-drug periods for active drug and placebo periods.\nThe frequency of cough (number per unit time) was recorded using a semi-automated system which records cough epochs (sounds) that are counted by a qualified technician."}, "irritant-induced cough": {"tested_on": "irritant-induced cough", "settings": "healthy human volunteers; Phase II; cited from earlier work"}, "[2]": {"test": "LC/MS/MS measurement of carcainium chloride concentrations in human plasma", "format": "in vivo", "settings": "patients administered 1 mg/kg carcainium chloride by inhalation; K2EDTA plasma", "method": "A liquid chromatography/tandem mass spectrometry (LC/MS/MS) assay method was developed, qualified, and implemented for the quantitation of carcainium chloride levels in K2EDTA human plasma samples collected from the human clinical study detailed above.\nInitially, carcainium chloride was dissolved in deionized water to provide an initial standard or quality control (QC) stock solution at a concentration of 1000 μg/mL. Serial dilutions were carried out with deionized water to provide secondary stock solutions for subsequent preparation of plasma calibration standards or QC samples according to Table 1 below. The internal standard lidocaine was dissolved in deionized water to provide an initial stock solution at a concentration of 1000 μg/mL. The initial internal standard stock solution was then serially diluted with deionized water to provide a spiking stock solution concentration of 50 ng/mL.\nA 10 μL aliquot of calibration standard stock solution or QC stock solution was transferred into individual 16×100 mm screw cap glass test tubes. For blank and blank with internal standard samples, 10 μL of deionized water was transferred instead. Human blank K2EDTA plasma (100 μL) was then added to each tube. A 50 μL aliquot of lidocaine internal standard spiking stock solution was transferred to each tube except for blank samples. A 50 μL aliquot of deionized water was added to blank samples. […]"}}}
{"smiles": "C[N+](C)(CC(=O)Nc1ccccc1)CC(=O)Nc1ccccc1.[Cl-]", "note": "[carcainium chloride, N,N-Bis-(phenylcarbamoylmethyl) dimethylammonium chloride]", "values": [{"measurement": "Drug related adverse side effects in the human clinical study", "setting": "[1]; 1 mg/kg inhaled", "value": "no significant drug related adverse side effects"}, {"measurement": "Number of coughs recorded electronically (frequency of cough)", "setting": "[1]; 1.0 mg/kg inhaled vs placebo, p=0.0007", "value": "statistically significant treatment effect"}, {"measurement": "Patient comfort score (VAS, 0-10 scale), pre- and post-drug", "setting": "[1]; 1.0 mg/kg inhaled vs placebo, p=0.0140 by sum of signed ranks", "value": "statistically significant improvement in patient well-being"}, {"measurement": "Physician assessment: trials in which the two physicians successfully identified the active treatment (anti-tussive effect)", "setting": "[1]; 1.0 mg/kg inhaled, ultrasonic nebulizer, vs placebo 0.9% NaCl, blinded, significance <0.05 by contingency table, 0.05-0.01 by Chi square", "value": "8 out of 8"}, {"measurement": "Anti-tussive activity, summary of the clinical study", "setting": "[1]; preliminary analysis, all three measures statistically significant", "value": "marked anti-tussive activity"}, {"measurement": "Ability to inhibit cough (increase of the amount of irritant required to induce cough)", "setting": "irritant-induced cough", "value": "no statistically significant ability to inhibit cough"}, {"measurement": "melting point", "value": "177 to 178", "unit": "°C"}, {"measurement": "Concentration of carcainium chloride in plasma samples", "setting": "[2]", "value": "1 to 50", "unit": "ng/mL"}]}
